Earlier results as cited in PMC8364686, “Safety, tolerability, pharmacokinetics and pharmacodynamics of single oral doses of BI 187004, an inhibitor of 11beta-hydroxysteroid dehydrogenase-1, in healthy male volunteers with overweight or obesity” (Clinical Diabetes and Endocrinology, 2021).
Read-outs that look alike come from different tables or passages of the source.

Tests used:
[1] = tested on: 11beta-HSD1; settings: cited from earlier work
[2] = tested on: 11beta-HSD1 in AT; settings: single dose, cited from earlier work

Compound: CCCSc1nc(N2CCC[C@@H](CC(=O)O)C2)ccc1C(=O)NC1CCCCC1 [AZD4017]
- Maximum decrease in urinary (aTHF + THF)/THE ratio ([1]; highest dose of 900 mg, after 9 days): 92%

Compound: CC(C)[C@]1(C)SC(=N[C@H]2C[C@@H]3CC[C@H]2C3)NC1=O [AMG 221]
- 11beta-HSD1 inhibition in AT ([2]; 24-h study duration): > 90%

Compound: N#Cc1ccc(-c2ccc(S(=O)(=O)Nc3cccc(N)n3)cc2)cc1 [PF-915275]
- Maximum decrease in urinary (aTHF + THF)/THE ratio ([1]; after 14 days of treatment): 26%

Compound: C[C@@H](c1ccc(-c2ccn(C)c(=O)c2)cc1)N1CC[C@](CC(C)(C)O)(c2ccccc2)OC1=O [BI 135585]
- 11beta-HSD1 inhibition in AT ([2]; 24 h after dosing): 90%
